Results on 9 compounds are retold here after ChEMBL document CHEMBL3991601, “The target landscape of clinical kinase drugs” (Science, 2017).

Assay [1] addresses Tyrosine-protein kinase Yes (Homo sapiens, UniProt P07947).
Another assay deals with Focal adhesion kinase 1 (Homo sapiens, UniProt Q05397).
Assay [2] addresses Mitogen-activated protein kinase kinase kinase 20 (Homo sapiens, UniProt Q9NYL2).
The target in assay [3] is Mitogen-activated protein kinase 10 (Homo sapiens, UniProt P53779).
Assay [4] deals with Serine/threonine-protein kinase/endoribonuclease IRE2 (Homo sapiens, UniProt Q76MJ5).
Assay [5] has as its target T1, Probable ATP-dependent RNA helicase DDX6 (Homo sapiens, UniProt P26196).
T1 sequence (P26196 whole entry): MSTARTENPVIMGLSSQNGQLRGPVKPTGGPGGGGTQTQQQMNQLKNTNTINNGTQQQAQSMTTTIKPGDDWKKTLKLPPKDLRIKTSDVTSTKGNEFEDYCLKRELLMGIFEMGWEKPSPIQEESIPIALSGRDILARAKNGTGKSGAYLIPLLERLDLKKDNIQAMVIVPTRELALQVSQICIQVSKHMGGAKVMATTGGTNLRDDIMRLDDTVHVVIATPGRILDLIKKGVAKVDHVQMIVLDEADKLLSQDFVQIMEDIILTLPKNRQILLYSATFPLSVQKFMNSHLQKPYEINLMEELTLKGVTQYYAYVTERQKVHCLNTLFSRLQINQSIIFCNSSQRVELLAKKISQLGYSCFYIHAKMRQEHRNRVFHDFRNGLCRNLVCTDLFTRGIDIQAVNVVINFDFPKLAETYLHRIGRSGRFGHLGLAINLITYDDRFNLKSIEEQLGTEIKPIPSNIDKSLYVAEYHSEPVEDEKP

Assay [6] has as its target Casein kinase II subunit alpha' (Homo sapiens, UniProt P19784).
Assay [7] addresses Casein kinase I isoform delta (Homo sapiens, UniProt P48730).
Assay [8] deals with Epidermal growth factor receptor (Homo sapiens, UniProt P00533).
Sequence of Epidermal growth factor receptor (P00533 whole entry): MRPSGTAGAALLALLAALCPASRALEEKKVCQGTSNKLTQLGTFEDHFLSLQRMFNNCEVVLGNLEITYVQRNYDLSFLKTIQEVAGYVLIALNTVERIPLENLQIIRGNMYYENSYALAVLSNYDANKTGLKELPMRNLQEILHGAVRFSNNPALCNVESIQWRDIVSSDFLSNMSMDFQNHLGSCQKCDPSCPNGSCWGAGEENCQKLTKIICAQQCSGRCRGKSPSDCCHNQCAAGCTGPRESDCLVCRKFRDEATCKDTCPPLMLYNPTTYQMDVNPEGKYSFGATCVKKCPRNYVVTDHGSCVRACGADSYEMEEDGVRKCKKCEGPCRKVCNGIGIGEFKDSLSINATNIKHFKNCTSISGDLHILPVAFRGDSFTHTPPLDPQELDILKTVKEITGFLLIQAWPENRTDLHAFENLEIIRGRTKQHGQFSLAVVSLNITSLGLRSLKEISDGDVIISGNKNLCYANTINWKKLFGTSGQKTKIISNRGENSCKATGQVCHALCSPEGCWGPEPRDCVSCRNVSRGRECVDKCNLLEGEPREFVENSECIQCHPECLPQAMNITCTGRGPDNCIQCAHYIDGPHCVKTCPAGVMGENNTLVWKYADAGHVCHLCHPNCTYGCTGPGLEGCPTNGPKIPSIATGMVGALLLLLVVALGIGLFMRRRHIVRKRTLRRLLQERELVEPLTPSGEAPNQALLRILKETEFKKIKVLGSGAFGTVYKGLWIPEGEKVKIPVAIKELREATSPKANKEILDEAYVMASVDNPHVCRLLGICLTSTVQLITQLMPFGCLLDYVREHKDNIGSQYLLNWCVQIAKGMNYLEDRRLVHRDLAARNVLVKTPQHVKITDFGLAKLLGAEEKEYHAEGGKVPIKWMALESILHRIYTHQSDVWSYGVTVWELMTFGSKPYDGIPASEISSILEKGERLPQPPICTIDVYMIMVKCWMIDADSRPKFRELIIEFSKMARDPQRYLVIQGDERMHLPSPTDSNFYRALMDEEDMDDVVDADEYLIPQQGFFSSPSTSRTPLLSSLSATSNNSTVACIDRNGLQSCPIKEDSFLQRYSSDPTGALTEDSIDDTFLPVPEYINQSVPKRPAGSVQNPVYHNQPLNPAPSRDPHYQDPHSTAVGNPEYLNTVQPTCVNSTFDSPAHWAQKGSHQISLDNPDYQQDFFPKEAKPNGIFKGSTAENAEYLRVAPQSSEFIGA
The target in assay [9] is T2, Serine/threonine-protein kinase TBK1 (Homo sapiens, UniProt Q9UHD2).
T2 sequence (Q9UHD2 whole entry): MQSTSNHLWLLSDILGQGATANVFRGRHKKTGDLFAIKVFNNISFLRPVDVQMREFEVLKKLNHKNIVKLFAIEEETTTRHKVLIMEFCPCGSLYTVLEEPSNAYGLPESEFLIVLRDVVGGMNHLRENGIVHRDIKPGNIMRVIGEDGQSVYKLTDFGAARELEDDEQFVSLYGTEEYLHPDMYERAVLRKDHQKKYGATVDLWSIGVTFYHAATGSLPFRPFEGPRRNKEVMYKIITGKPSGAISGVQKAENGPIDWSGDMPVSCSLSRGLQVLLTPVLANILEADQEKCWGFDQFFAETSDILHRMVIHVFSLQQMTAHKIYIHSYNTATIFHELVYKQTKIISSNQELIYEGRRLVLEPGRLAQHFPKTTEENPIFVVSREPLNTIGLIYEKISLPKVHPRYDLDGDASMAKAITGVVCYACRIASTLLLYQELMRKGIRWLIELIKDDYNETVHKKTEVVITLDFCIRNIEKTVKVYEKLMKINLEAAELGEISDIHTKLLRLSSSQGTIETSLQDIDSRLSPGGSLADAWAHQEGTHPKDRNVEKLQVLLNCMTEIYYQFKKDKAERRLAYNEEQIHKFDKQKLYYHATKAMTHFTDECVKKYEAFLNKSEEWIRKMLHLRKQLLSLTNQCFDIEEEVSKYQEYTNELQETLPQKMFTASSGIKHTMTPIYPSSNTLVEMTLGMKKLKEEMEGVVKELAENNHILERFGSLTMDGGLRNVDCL

The target of another assay is Ephrin type-A receptor 7 (Homo sapiens, UniProt Q15375).
Sequence of Ephrin type-A receptor 7 (Q15375 whole entry): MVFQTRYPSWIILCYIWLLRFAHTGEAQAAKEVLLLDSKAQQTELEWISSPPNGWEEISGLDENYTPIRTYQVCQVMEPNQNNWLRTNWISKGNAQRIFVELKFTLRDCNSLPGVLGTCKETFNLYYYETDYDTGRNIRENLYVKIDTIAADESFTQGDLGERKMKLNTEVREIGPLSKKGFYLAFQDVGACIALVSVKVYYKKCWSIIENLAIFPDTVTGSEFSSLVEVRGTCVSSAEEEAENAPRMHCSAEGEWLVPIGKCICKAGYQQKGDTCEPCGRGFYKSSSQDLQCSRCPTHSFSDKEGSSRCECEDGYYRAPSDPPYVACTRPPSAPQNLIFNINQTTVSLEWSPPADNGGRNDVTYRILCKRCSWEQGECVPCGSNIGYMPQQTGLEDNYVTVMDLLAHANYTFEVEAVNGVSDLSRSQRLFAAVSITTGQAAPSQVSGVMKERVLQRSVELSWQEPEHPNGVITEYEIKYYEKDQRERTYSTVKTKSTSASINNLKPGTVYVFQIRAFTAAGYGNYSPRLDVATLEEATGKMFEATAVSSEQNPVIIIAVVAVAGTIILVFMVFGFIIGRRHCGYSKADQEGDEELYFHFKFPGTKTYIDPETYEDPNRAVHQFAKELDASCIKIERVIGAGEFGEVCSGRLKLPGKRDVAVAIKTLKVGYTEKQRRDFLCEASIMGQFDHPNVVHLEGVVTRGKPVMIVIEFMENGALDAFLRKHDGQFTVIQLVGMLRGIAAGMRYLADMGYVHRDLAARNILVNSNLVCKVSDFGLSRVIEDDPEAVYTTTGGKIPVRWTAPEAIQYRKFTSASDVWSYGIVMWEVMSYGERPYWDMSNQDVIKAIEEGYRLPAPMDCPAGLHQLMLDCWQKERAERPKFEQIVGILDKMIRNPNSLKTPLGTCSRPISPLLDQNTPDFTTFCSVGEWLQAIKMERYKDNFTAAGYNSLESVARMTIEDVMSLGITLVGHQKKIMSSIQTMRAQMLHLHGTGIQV
For assay [10], the target named is T3, Membrane-associated tyrosine- and threonine-specific cdc2-inhibitory kinase (Homo sapiens, UniProt Q99640).
T3 sequence (Q99640 whole entry): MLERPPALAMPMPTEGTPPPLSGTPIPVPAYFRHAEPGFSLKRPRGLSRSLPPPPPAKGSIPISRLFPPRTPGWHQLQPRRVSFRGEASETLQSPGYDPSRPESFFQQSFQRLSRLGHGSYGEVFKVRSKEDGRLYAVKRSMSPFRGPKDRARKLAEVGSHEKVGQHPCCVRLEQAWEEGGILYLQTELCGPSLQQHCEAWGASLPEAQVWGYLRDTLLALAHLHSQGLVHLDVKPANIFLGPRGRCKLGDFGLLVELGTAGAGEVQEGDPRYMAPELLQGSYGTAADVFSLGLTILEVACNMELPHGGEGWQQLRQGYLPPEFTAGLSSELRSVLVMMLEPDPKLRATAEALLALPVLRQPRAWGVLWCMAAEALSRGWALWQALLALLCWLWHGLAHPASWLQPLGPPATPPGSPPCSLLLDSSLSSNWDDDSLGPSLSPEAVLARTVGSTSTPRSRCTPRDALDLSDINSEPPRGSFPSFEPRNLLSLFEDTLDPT

Assay [11] has as its target Serine/threonine-protein kinase PAK 4 (Homo sapiens, UniProt O96013).

Activity calls are given as the source filed them. Rule as the data show it, for most assays here: actives have a measured Kd and inactives only a lower limit. Bounds are passed on as bounds.

As a reminder, the Kd is the constant that tells how readily two partners part at equilibrium.
Also: in the data inactive means no Kd found up to 30 µM.

Sequence of Casein kinase II subunit alpha' (P19784 whole entry, canonical isoform): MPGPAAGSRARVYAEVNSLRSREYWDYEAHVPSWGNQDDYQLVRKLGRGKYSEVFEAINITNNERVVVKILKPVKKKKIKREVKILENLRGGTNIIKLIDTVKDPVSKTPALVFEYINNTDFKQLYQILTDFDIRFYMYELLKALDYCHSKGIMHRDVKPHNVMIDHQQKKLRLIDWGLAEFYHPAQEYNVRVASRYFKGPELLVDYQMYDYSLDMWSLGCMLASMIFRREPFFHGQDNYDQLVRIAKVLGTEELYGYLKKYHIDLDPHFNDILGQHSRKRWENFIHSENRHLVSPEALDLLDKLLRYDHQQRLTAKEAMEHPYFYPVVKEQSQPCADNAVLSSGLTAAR
Sequence of Focal adhesion kinase 1 (Q05397 whole entry): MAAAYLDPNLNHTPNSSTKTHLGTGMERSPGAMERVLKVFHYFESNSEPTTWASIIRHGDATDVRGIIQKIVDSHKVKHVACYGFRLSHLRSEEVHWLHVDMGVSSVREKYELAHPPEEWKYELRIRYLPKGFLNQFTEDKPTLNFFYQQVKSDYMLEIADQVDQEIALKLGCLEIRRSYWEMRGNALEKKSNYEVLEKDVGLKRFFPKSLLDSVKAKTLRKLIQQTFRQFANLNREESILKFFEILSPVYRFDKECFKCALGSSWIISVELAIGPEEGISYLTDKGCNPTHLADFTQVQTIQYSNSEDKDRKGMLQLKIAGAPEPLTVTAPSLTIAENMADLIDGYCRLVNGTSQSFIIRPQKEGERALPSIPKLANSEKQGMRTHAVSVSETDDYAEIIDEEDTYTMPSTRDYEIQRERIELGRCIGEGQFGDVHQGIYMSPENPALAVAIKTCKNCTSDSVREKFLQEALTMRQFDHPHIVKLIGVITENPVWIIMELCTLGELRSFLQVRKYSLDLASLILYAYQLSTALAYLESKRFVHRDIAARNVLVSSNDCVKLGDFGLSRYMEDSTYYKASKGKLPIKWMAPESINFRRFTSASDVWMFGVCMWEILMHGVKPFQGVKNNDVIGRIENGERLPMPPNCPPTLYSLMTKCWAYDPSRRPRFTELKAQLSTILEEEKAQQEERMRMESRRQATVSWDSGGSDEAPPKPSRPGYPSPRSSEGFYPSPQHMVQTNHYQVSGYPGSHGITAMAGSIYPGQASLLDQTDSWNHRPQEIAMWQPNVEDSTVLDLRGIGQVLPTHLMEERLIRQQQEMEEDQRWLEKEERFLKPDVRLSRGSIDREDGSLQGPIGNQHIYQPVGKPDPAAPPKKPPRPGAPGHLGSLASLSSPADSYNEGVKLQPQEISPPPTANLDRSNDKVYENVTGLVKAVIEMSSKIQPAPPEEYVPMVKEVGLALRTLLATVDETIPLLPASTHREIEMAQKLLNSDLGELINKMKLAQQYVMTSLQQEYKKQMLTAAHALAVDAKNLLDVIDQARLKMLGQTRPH
Sequence of Casein kinase I isoform delta (P48730 whole entry, canonical isoform): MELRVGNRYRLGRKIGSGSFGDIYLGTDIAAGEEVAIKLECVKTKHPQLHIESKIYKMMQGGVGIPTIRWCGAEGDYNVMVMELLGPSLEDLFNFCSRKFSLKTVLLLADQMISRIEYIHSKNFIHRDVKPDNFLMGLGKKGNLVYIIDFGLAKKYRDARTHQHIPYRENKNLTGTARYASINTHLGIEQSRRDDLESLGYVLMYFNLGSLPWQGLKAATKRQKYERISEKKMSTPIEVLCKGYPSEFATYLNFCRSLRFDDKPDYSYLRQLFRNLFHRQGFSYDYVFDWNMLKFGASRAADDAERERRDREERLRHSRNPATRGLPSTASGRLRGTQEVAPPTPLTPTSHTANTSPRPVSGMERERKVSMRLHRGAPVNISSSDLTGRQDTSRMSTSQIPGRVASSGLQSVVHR
Sequence of Tyrosine-protein kinase Yes (P07947 whole entry): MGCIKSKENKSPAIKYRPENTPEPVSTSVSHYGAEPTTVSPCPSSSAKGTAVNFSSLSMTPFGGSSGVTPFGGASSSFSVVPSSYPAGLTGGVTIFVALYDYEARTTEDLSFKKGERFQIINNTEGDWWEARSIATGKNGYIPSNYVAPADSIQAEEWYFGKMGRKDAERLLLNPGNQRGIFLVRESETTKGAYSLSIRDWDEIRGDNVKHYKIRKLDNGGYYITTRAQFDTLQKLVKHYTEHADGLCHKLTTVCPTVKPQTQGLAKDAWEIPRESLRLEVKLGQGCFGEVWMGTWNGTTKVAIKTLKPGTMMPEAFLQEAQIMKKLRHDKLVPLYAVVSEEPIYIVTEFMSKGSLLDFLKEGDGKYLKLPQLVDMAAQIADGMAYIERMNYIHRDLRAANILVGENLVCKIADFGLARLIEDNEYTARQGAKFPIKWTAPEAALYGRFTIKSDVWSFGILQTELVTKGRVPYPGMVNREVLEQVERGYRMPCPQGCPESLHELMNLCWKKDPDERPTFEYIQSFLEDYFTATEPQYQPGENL
Sequence of Mitogen-activated protein kinase 10 (P53779 whole entry): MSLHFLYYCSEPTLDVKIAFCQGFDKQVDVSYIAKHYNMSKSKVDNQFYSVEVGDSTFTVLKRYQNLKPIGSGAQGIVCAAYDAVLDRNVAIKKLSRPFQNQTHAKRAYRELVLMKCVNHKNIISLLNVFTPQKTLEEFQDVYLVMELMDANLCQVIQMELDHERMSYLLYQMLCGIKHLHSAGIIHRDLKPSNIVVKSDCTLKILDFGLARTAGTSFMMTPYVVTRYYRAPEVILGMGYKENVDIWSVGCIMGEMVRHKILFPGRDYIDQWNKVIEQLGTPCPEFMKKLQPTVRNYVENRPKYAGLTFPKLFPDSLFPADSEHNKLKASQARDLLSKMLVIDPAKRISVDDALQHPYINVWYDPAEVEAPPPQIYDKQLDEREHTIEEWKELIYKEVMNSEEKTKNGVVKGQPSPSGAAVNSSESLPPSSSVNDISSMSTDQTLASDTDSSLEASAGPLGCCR

In the case of `N#CC1(c2ccc(NC(=O)c3cccnc3NCc3ccncc3)cc2)CCCC1` [RIVOCERANIB], the Kd in assay [1] is > 30 µM (inactive); at Focal adhesion kinase 1 it was > 30 µM (inactive); in assay [2] it was 4.76 µM (active); in [3], > 30 µM (inactive); in assay [4], > 30 µM (inactive); in [5], > 30 µM (inactive). Also, the Kd (in assay [6]; in assay [7]; in [8]; in [9]; on Ephrin type-A receptor 7; in [10]) was > 30 µM (inactive) in each case. In addition, the Kd in [11] is > 30 µM (inactive).

In the case of `O=c1[nH]ccc2cc(OC3CCNCC3)ccc12` [SAR-407899 FREE BASE], the Kd (in assay [1]; on Focal adhesion kinase 1; in assay [2]; in [3]; in assay [4]; in [5]) was > 30 µM (inactive) each time. Also, the Kd (in assay [6]; in assay [7]; in [8]; in assay [9]; on Ephrin type-A receptor 7; in assay [10]) was > 30 µM (inactive) in each case. The Kd in [11] was > 30 µM (inactive).

Turning to `Cn1cc(-c2cnn3c(N)c(Br)c([C@@H]4CCCNC4)nc23)cn1` [SCH-900776], the Kd (in [1]; on Focal adhesion kinase 1; in assay [2]; in assay [3]; in assay [4]; in assay [5]) was > 30 µM (inactive) throughout. Besides, the Kd in assay [6] is 0.279 µM (active); in assay [7], > 30 µM (inactive); in [8] it was > 30 µM (inactive); in [9] it was > 30 µM (inactive); on Ephrin type-A receptor 7 it was > 30 µM (inactive); in [10], > 30 µM (inactive). Besides, in [11], the Kd is 2.9 µM.

As for `CCS(=O)(=O)c1cccc(-c2cc(C(=O)NC3CCN(C)CC3)c(C)c3[nH]c4ncc(C)cc4c23)c1` [TAK-901], the Kd is 0.022 µM (active) in [1]; 0.264 µM (active) on Focal adhesion kinase 1; > 30 µM (inactive) in assay [2]; > 30 µM (inactive) in [3]; > 30 µM (inactive) in [4]; > 30 µM (inactive) in [5]. Moreover, the Kd in assay [6] is 28.9 µM (active); in assay [7] it was > 30 µM (inactive); in assay [8], 1.47 µM (active); in [9] it was 2.76 µM (active); at Ephrin type-A receptor 7, 0.615 µM (active); in assay [10], > 30 µM (inactive). Also, the Kd in assay [11] is > 30 µM (inactive).

Consider `CO[C@H]1C[C@@H]2CC[C@@H](C)[C@@](O)(O2)C(=O)C(=O)N2CCCC[C@H]2C(=O)O[C@H]([C@H](C)C[C@@H]2CC[C@@H](OC(=O)C(C)(CO)CO)[C@H](OC)C2)CC(=O)[C@H](C)/C=C(\C)[C@@H](O)[C@@H](OC)C(=O)[C@H](C)C[C@H](C)/C=C/C=C/C=C/1C` [TEMSIROLIMUS], for which the Kd (in assay [1]; at Focal adhesion kinase 1; in [2]; in [3]; in assay [4]; in assay [5]) was > 30 µM (inactive) each time. The Kd (in [6]; in [7]; in assay [8]; in assay [9]; on Ephrin type-A receptor 7; in assay [10]) was > 30 µM (inactive) each time. Moreover, in [11], the Kd is > 30 µM (inactive).

Regarding `COc1cc2c(Nc3ccc(Cl)c(Cl)c3F)ncnc2cc1OC[C@@H]1C[C@@H]2CN(C)C[C@@H]2C1` [TESEVATINIB], the Kd in assay [1] is 3.94 µM (active); at Focal adhesion kinase 1, > 30 µM (inactive); in [2], > 30 µM (inactive); in assay [3] it was > 30 µM (inactive); in assay [4], > 30 µM (inactive); in [5], > 30 µM (inactive). Moreover, the Kd is > 30 µM (inactive) in assay [6]; > 30 µM (inactive) in [7]; 0.038 µM (active) in [8]; > 30 µM (inactive) in assay [9]; 0.022 µM on Ephrin type-A receptor 7; > 30 µM (inactive) in assay [10]. Also, the Kd in assay [11] was > 30 µM (inactive).

On to `O=C(Cc1ccc(-c2ccc(OCCN3CCOCC3)cc2)cn1)NCc1ccccc1` [TIRBANIBULIN], for which the Kd (in [1]; at Focal adhesion kinase 1; in assay [2]; in [3]; in [4]; in [5]) was > 30 µM (inactive) each time. The Kd (in [6]; in assay [7]; in [8]; in assay [9]; at Ephrin type-A receptor 7; in assay [10]) was > 30 µM (inactive) each time. In addition, the Kd in [11] is > 30 µM (inactive).

For `Cc1cc(Nc2ncnc3ccc(NC4=NC(C)(C)CO4)cc23)ccc1Oc1ccn2ncnc2c1` [TUCATINIB], the Kd (in assay [1]; on Focal adhesion kinase 1; in assay [2]; in assay [3]; in [4]; in [5]) was > 30 µM (inactive) throughout. The Kd in assay [6] was > 30 µM (inactive); in assay [7], > 30 µM (inactive); in assay [8], 2.53 µM (active); in [9] it was > 30 µM (inactive); on Ephrin type-A receptor 7, > 30 µM (inactive); in [10], > 30 µM (inactive). The Kd in assay [11] was > 30 µM (inactive).

With `Cn1ncc(Cl)c1-c1cc(C(=O)N[C@H](CN)Cc2ccc(F)c(F)c2)oc1Cl` [UPROSERTIB], the Kd (in assay [1]; on Focal adhesion kinase 1; in assay [2]; in assay [3]; in assay [4]; in assay [5]) was > 30 µM (inactive) throughout. The Kd (in assay [6]; in [7]; in assay [8]; in [9]; at Ephrin type-A receptor 7; in assay [10]) was > 30 µM (inactive) each time. Besides, the Kd in assay [11] is > 30 µM (inactive).
